# Assay results reported in publication PMC10140010 (Investigational New Drugs, 2023).
# Several values for one entry are separate records, joined by “and”; a condition that tells them apart may be missing. Equal entries are not always repeated.
# Experiments:
# MINK = MINK (Homo sapiens, UniProt Q8N4C8); test: Z'-LYTE kinase selectivity; type: biochemical
# EPHA2 = EPHA2 (Homo sapiens, UniProt P29317); test: Z'-LYTE kinase selectivity; type: biochemical
# CDK2 = CDK2 (Homo sapiens, UniProt P24941); test: Z'-LYTE kinase selectivity; type: biochemical
# ABL = ABL (Homo sapiens, UniProt P00519); test: Z'-LYTE kinase selectivity; type: biochemical
# [1] = test system: Ba/F3 (EML4-ALK^WT) cells; test: Cell proliferation (CellTiter-Glo); type: cell-based; conditions: Mus musculus, BaF3
# Procedure: (§1) Cell proliferation assay was performed using methods reported in the previous article. Cell proliferation was measured using the CellTiter-Glo® (CTG) Luminescent Cell Viability Assay (Promega, WI, USA). Cells were seeded in 96-well plates at 15,000 cells per well in detection medium containing 0.5% fetal bovine serum and placed in an incubator at 37℃ and 5% CO2 overnight. On the following day, iruplinalkib was serially diluted with DMSO, further diluted in assay medium, and added to the designated wells for serial dilution of iruplinalkib to the target gradient concentration.
# (§2) Transfection was performed when cell confluent reached 70–90% in 12-well plates. Opti-MEM medium was used to dilute Lipofectamine 3000 reagent (ThermoFisher, MA, USA) and siRNA separately and mixed well. The mixture was added to the cells after incubation at room temperature for 15 min, then at 37℃ for 2–4 days.
# [2] = test system: Ba/F3 (EML4-ALK^C1156Y) cells; test: Cell proliferation (CellTiter-Glo); type: cell-based; conditions: Mus musculus, BaF3
# Procedure: as §1, §2
# CaMK2 alpha = CaMK2 alpha (Homo sapiens, UniProt Q9UQM7); test: Z'-LYTE kinase selectivity; type: biochemical
# [3] = test system: Karpas299 (NPM-ALK) cells; test: Cell proliferation (CellTiter-Glo); type: cell-based
# Procedure: as §1
# MST4 = MST4 (Homo sapiens, UniProt Q9P289); test: Z'-LYTE kinase selectivity; type: biochemical
# SRC = SRC (Homo sapiens, UniProt P12931); test: Z'-LYTE kinase selectivity; type: biochemical
# [4] = test system: LU-01-0015 (HIP-ALK) patient derived lung-tumor xenografts; test: LU-01-0015 patient-derived xenograft model (tumor volume, body weight); type: in vivo, BALB/c nude mice; conditions: for Tumor volume Mean: group mean; for Tumor volume: individual mouse, in mm³
# Procedure: Female BALB/c nude mice (4–6 weeks old) were provided by Shanghai Sipple-Bikai Laboratory Animal Co., Ltd. and Beijing Vital River Laboratory Animal Technology Co., Ltd. The mice were housed in a specific pathogen-free environment under a 12 h light/dark cycle, and had free access to sterile animal feed and water.
# PDX and CDX models were used for in vivo studies. Patient-derived tumors tissues were divided into about 30 mm^3 and transplanted into the right dorsal subcutis. Treatment began when the tumor size reached to 200 mm^3. The mice were randomly assignied into the corresponding dosing groups (9 mice in each group). Drugs were deliverd via daily oral for 4 weeks. Tumor size was measured periodically using a digital caliper (Cal Pro, Sylvac, Switzerland), and tumor volume was calculated as 0.5 × length × width^2. For more detailed information, please refer to Supplementary materials. All procedures and protocols of xenograft models were approved by the Institutional Animal Care and Use Committee of WuXi AppTec.
# Patient-derived tumor tissue was segmented into small pieces of approximately 20–30 mm^3 and transplanted subcutaneously into the right back of mice. When the tumor volume reached 150-200 mm^3, the mice were randomly divided into corresponding groups (9 mice in each group, female). Administered by gavage once daily for 4 weeks.
# c-MET = c-MET (Homo sapiens, UniProt P08581); test: Z'-LYTE kinase selectivity; type: biochemical
# P38 alpha = P38 alpha (Homo sapiens, UniProt Q16539); test: Z'-LYTE kinase selectivity; type: biochemical
# [5] = test system: phosphorylation of ALK, AKT, ERK, STAT3 and STAT5 in NCI-H3122 tumor tissue; test: Phosphorylation of downstream signal molecules in tumor tissue of NCI-H3122 xenograft; type: in vivo, BALB/c nude mice; conditions: 8 h after administration
# Procedure: In general, the cells were exposed to the drug and were harvested for western blot analysis. SDS-PAGE was used to separate the proteins of interest, which were then transferred to a nitrocellulose (NC) filtration membrane and soaked in a blocking solution [5% non-fat dry milk in tris-buffered saline with Tween 20 (TBST)] for 1 h at room temperature. Thereafter, the membrane was probed overnight with primary antibodies at 4℃ and washed three times with TBST. The corresponding secondary antibody diluent was added, incubated at room temperature for 1 h, and washed 3 times with TBST. After adding the enhanced chemiluminescence developer to the NC filtration membrane, it is developed in the imaging system (ChemiDoc™ XRS^+, BIO-RAD). See Supplementary Table 2 for details of the antibodies used.
# In order to check how iruplinalkib exerts its anti-tumor effects in vivo, tumor tissue samples were collected at 1 and 8 h after the last dose, and the phosphorylation level of downstream signaling pathways molecules were detected.
# MAPKAPK2 = MAPKAPK2 (Homo sapiens, UniProt P49137); test: Z'-LYTE kinase selectivity; type: biochemical
# JAK2 = JAK2 (Homo sapiens, UniProt O60674); test: Z'-LYTE kinase selectivity; type: biochemical
# [6] = 5 mg/kg PO QD×4 W, day 0 after administration
# [7] = 5 mg/kg PO QD×4 W, day 3 after administration
# [8] = 5 mg/kg PO QD×4 W, day 7 after administration
# [9] = 5 mg/kg PO QD×4 W, day 10 after administration
# [10] = 5 mg/kg PO QD×4 W, day 14 after administration
# [11] = 5 mg/kg PO QD×4 W, day 17 after administration
# [12] = 5 mg/kg PO QD×4 W, day 21 after administration
# [13] = 5 mg/kg PO QD×4 W, day 24 after administration
# [14] = 5 mg/kg PO QD×4 W, day 27 after administration
# [15] = 10 mg/kg (D0-D7)/2.5 mg/kg PO QD×4 W, day 0 after administration
# [16] = 10 mg/kg (D0-D7)/2.5 mg/kg PO QD×4 W, day 3 after administration
# [17] = 10 mg/kg (D0-D7)/2.5 mg/kg PO QD×4 W, day 7 after administration
# [18] = 10 mg/kg (D0-D7)/2.5 mg/kg PO QD×4 W, day 10 after administration
# [19] = 10 mg/kg (D0-D7)/2.5 mg/kg PO QD×4 W, day 14 after administration
# [20] = 10 mg/kg (D0-D7)/2.5 mg/kg PO QD×4 W, day 17 after administration
# [21] = 10 mg/kg (D0-D7)/2.5 mg/kg PO QD×4 W, day 21 after administration
# [22] = 10 mg/kg (D0-D7)/2.5 mg/kg PO QD×4 W, day 24 after administration
# [23] = 10 mg/kg (D0-D7)/2.5 mg/kg PO QD×4 W, day 27 after administration
# [24] = 15 mg/kg PO QD×4 W, day 0 after administration
# [25] = 15 mg/kg PO QD×4 W, day 3 after administration
# [26] = 15 mg/kg PO QD×4 W, day 7 after administration
# [27] = 15 mg/kg PO QD×4 W, day 10 after administration
# [28] = 15 mg/kg PO QD×4 W, day 14 after administration
# [29] = 15 mg/kg PO QD×4 W, day 17 after administration
# [30] = 15 mg/kg PO QD×4 W, day 21 after administration
# [31] = 15 mg/kg PO QD×4 W, day 24 after administration
# [32] = 15 mg/kg PO QD×4 W, day 27 after administration
# JAK2, sequence (O60674 whole entry): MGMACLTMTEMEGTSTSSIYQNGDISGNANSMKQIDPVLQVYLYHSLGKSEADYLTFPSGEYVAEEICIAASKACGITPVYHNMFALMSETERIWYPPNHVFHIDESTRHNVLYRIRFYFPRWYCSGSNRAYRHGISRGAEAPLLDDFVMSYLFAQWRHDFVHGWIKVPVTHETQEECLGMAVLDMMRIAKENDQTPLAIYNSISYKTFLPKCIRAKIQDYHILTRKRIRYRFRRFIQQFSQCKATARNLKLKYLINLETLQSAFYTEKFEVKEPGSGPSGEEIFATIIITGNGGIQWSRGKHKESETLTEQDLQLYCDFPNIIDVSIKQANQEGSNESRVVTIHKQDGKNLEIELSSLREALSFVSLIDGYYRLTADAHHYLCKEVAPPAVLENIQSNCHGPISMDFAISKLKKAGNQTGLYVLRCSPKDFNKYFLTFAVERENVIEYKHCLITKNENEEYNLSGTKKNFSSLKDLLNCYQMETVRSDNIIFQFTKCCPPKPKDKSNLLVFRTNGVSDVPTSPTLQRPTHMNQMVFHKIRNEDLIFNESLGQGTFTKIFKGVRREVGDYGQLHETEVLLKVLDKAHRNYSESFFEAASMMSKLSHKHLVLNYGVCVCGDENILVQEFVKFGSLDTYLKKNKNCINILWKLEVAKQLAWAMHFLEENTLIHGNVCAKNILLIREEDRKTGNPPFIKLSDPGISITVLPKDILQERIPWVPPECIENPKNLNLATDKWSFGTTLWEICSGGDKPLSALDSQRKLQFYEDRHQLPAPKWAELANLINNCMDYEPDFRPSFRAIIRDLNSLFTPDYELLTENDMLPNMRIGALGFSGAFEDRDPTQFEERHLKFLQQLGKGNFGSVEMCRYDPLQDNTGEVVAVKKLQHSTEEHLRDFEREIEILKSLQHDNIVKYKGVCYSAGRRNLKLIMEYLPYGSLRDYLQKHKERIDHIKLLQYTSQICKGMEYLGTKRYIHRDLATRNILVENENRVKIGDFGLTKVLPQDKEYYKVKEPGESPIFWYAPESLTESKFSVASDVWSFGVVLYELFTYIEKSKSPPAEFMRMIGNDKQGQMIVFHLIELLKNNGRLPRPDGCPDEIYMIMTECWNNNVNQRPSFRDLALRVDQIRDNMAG
# ABL, sequence (P00519 whole entry): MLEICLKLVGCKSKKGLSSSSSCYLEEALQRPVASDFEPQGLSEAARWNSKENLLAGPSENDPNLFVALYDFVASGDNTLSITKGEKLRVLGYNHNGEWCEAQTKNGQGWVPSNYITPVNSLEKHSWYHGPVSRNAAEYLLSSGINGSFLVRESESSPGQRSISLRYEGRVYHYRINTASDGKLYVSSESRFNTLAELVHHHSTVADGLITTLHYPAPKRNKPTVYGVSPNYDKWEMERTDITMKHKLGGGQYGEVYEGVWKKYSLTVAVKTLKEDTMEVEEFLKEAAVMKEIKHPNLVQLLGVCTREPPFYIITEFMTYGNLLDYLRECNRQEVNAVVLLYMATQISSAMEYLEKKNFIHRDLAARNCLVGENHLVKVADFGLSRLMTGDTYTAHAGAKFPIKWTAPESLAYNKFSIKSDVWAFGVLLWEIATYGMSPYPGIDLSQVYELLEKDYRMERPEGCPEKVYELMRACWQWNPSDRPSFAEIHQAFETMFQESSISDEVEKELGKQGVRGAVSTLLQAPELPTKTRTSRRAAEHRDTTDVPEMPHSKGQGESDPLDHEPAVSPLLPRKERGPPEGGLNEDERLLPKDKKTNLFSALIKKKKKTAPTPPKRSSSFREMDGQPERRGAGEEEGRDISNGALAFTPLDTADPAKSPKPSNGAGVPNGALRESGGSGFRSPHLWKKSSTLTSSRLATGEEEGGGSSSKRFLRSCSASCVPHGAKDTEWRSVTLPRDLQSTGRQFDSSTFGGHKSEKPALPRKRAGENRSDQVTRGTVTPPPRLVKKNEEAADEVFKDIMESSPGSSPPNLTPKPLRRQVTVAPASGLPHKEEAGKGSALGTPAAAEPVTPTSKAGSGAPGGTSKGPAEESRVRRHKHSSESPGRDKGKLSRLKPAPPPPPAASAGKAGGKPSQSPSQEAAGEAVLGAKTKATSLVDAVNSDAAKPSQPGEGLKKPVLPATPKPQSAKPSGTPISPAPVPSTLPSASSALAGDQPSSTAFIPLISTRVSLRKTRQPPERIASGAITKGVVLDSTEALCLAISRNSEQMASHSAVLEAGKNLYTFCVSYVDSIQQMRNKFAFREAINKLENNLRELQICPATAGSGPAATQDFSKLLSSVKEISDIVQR
# SRC, sequence (P12931 whole entry): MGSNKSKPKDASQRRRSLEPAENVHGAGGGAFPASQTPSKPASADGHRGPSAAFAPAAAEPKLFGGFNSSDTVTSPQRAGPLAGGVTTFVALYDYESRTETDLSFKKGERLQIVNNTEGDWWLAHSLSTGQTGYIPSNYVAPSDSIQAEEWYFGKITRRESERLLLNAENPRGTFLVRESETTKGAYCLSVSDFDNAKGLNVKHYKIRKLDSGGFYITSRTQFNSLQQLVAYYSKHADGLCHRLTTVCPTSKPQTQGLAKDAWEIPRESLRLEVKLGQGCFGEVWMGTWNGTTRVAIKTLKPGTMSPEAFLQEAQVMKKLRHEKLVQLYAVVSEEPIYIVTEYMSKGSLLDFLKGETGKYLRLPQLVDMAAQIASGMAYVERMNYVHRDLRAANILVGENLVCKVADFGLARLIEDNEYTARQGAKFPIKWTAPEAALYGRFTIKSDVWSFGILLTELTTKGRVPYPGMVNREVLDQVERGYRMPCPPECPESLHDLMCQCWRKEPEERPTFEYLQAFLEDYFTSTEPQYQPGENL
# MST4, sequence (Q9P289 whole entry): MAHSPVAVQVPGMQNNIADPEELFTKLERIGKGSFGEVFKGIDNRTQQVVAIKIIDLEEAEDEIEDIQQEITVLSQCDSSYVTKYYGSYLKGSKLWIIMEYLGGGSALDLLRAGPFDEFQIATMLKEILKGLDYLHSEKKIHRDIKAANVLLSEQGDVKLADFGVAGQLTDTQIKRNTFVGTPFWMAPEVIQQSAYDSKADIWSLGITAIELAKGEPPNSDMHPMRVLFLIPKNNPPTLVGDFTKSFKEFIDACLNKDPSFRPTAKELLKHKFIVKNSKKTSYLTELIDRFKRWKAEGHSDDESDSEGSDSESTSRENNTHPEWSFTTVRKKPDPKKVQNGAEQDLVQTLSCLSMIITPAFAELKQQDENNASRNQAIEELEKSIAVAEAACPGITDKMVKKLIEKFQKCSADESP
# CaMK2 alpha, sequence (Q9UQM7 whole entry): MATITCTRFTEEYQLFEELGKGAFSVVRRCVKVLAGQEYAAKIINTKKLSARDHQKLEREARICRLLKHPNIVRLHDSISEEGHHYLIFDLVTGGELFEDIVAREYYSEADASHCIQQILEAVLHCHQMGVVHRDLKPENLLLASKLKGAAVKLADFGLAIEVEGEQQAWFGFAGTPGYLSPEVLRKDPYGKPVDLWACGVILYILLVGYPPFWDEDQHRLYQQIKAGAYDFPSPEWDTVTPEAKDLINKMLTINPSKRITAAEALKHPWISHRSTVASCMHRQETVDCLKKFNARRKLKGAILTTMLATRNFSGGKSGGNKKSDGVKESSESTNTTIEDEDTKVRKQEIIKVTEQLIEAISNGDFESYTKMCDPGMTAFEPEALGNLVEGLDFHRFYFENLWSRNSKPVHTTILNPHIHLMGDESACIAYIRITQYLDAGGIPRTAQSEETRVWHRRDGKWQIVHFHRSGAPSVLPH
# P38 alpha, sequence (Q16539 whole entry): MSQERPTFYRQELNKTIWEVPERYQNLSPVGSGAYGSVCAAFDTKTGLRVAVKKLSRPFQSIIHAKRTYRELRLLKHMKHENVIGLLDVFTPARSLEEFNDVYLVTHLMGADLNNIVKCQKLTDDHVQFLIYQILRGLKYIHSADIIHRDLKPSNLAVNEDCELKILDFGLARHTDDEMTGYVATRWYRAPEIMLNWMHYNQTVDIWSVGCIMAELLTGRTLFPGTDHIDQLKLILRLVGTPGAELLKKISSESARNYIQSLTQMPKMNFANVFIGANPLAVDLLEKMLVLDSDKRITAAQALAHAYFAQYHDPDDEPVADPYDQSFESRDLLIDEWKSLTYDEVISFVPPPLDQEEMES
# EPHA2, sequence (P29317 24-976): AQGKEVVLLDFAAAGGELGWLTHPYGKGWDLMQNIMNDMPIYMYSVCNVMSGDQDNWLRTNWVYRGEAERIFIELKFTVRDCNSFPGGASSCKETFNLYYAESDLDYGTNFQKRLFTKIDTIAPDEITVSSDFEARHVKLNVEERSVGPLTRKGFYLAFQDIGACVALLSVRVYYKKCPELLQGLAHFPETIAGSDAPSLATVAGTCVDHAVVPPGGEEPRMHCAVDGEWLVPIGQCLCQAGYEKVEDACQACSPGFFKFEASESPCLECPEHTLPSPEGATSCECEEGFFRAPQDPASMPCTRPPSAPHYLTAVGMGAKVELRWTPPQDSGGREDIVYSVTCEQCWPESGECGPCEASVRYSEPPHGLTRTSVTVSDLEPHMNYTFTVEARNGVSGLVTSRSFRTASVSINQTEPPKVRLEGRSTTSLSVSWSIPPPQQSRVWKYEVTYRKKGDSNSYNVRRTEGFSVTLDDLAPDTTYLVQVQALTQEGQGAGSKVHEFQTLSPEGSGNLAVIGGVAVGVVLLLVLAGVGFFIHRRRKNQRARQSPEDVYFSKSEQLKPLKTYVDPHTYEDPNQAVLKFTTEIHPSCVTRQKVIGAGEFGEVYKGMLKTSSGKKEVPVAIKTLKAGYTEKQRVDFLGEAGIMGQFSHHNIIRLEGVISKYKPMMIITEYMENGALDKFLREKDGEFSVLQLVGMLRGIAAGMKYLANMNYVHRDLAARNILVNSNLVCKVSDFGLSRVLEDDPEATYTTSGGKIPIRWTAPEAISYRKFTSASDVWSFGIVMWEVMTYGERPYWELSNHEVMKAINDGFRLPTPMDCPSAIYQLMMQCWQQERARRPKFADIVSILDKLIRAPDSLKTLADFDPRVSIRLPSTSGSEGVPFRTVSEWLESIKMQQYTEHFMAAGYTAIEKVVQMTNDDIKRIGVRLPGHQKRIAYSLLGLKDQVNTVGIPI
smiles,measurement,setting,value
COc1cc(N2CCC3(CCN(C)CC3)CC2)ccc1Nc1ncc(Cl)c(Nc2ccccc2P(C)(C)=O)n1 [Iruplinalkib],IC50,MINK,3.89 ± 1.06 µM
same,IC50,EPHA2,> 10 µM
same,IC50,CDK2,1.56 ± 1.13 µM
same,IC50,ABL,0.576 ± 0.108 µM
same,IC50,[1],0.004 µM
same,IC50,[2],0.009 µM
same,IC50,CaMK2 alpha,0.939 ± 0.099 µM
same,IC50,[3],0.0045 ± 0.0007 µM
same,IC50,MST4,1.4 ± 0.251 µM
same,IC50,SRC,1.68 ± 0.872 µM
same,Tumor volume Mean,[4]; [6],149 mm³
same,Tumor volume,[4]; [6],165
same,Tumor volume Mean,[4]; [7],127 mm³
same,Tumor volume,[4]; [7],165
same,Tumor volume Mean,[4]; [8],82 mm³
same,Tumor volume,[4]; [8],96
same,Tumor volume Mean,[4]; [9],79 mm³
same,Tumor volume,[4]; [9],80
same,Tumor volume Mean,[4]; [10],70 mm³
same,Tumor volume,[4]; [10],75
same,Tumor volume Mean,[4]; [11],81 mm³
same,Tumor volume,[4]; [11],96
same,Tumor volume Mean,[4]; [12],89 mm³
same,Tumor volume,[4]; [12],121
same,Tumor volume Mean,[4]; [13],85 mm³
same,Tumor volume,[4]; [13],118
same,Tumor volume Mean,[4]; [14],94 mm³
same,Tumor volume,[4]; [14],104
same,Tumor volume Mean,[4]; [15],150 mm³
same,Tumor volume,[4]; [15],136 and 117
same,Tumor volume Mean,[4]; [16],124 mm³
same,Tumor volume,[4]; [16],115 and 76
same,Tumor volume Mean,[4]; [17],77 mm³
same,Tumor volume,[4]; [17],71 and 51
same,Tumor volume Mean,[4]; [18],60 mm³
same,Tumor volume,[4]; [18],49 and 43
same,Tumor volume Mean,[4]; [19],63 mm³
same,Tumor volume,[4]; [19],48
same,Tumor volume Mean,[4]; [20],77 mm³
same,Tumor volume,[4]; [20],58
same,Tumor volume Mean,[4]; [21],107 mm³
same,Tumor volume,[4]; [21],56
same,Tumor volume Mean,[4]; [22],106 mm³
same,Tumor volume,[4]; [22],57
same,Tumor volume Mean,[4]; [23],127 mm³
same,Tumor volume,[4]; [23],65 and 99
same,Tumor volume Mean,[4]; [24],149 mm³
same,Tumor volume,[4]; [24],101 and 162 and 129 and 99 and 217 and 147 and 109 and 207 and 174
same,Tumor volume Mean,[4]; [25],115 mm³
same,Tumor volume,[4]; [25],81 and 117 and 84 and 63 and 150 and 118 and 79 and 154 and 190
same,Tumor volume Mean,[4]; [26],66 mm³
same,Tumor volume,[4]; [26],51 and 61 and 57 and 56 and 78 and 72 and 52 and 71 and 98
same,Tumor volume Mean,[4]; [27],54 mm³
same,Tumor volume,[4]; [27],48 and 61 and 44 and 35 and 63 and 79 and 45
same,Tumor volume Mean,[4]; [28],49 mm³
same,Tumor volume,[4]; [28],41 and 57 and 43 and 31 and 72 and 46 and 44 and 60
same,Tumor volume Mean,[4]; [29],51 mm³
same,Tumor volume,[4]; [29],44 and 92 and 41 and 24 and 68 and 47 and 32 and 42
same,Tumor volume Mean,[4]; [30],49 mm³
same,Tumor volume,[4]; [30],35 and 87 and 45 and 30 and 53 and 59 and 37 and 41 and 57
same,Tumor volume Mean,[4]; [31],43 mm³
same,Tumor volume,[4]; [31],29 and 56 and 37 and 23 and 45 and 53 and 34 and 22 and 91
same,Tumor volume Mean,[4]; [32],49 mm³
same,Tumor volume,[4]; [32],30 and 67 and 38 and 27 and 62 and 54 and 44 and 42 and 78
same,tumor growth inhibition,"[4]; LU-01-0015 and NCI-H3122 xenograft models, all P < 0.05",able to inhibit tumor growth
same,tumor inhibition effect compared with brigatinib,[4]; crizotinib-resistant model,significantly better than that of brigatinib
same,effect on body weight,"[4]; nude mouse xenograft models (LU-01-0015, NCI-H3122), all P ≥ 0.05",no effect
same,IC50,c-MET,2.94 ± 0.232 µM
same,IC50,P38 alpha,> 10 µM
same,levels of phosphorylation of STAT3 and STAT5 in tumor tissue,[5],decreased
same,IC50,MAPKAPK2,> 10 µM
same,IC50,JAK2,0.595 ± 0.012 µM
